# According to article PMC9321231:
# Assays:
# [1] = target: T1, human neutrophil elastase (HNE) (Homo sapiens, UniProt P08246); test: Kinetic analysis of the inhibition of human neutrophil elastase (Lineweaver-Burk, Dixon, secondary plots); type: biochemical; conditions: for Inhibition Type: Lineweaver-Burk and Dixon analysis; for Kis (enzyme-substrate-inhibitor dissociation constant): secondary plot of intercept versus inhibitor concentration; for Ki: secondary plot of slope versus inhibitor concentration, read-out: Ki (enzyme-inhibitor dissociation constant)
# T1 sequence (P08246 30-267): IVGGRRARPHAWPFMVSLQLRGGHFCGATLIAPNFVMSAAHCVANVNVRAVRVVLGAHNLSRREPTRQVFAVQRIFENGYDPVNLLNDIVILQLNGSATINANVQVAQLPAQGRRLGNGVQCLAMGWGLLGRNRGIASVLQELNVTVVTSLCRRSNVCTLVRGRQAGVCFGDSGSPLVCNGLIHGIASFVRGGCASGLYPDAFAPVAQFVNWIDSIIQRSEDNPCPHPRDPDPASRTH
# Method: Next, kinetic analysis of the mechanism of inhibition of human neutrophil elastase by thiazoles 3a–3j was determined using double-reciprocal plots of Lineweaver-Burk plots and Dixon analysis.
# The first model is one in which the inhibitor binds better to the free enzyme (competitive mechanism), while the second model is one in which the inhibitor binds better to the enzyme-substrate complex (non-competitive mechanism). Next the secondary plots of slope versus concentration of test compounds were plotted to determine the enzyme-inhibitor dissociation constants Ki, and similarly as was used to determine enzyme-substrate-inhibitor dissociation constants Kis, the secondary plots of intercept versus concentration of tested compounds were plotted.
# Kinetic studies were conducted in the presence of different concentrations of substrate (5, 25, 50 and 100 µM) and test compounds (in the range of 0–500 nM). The reaction conditions were the same as in the HNE inhibition assay and the reaction was monitored for 10 min at 25 °C with the same Ex an Em wavelengths. By Lineweaver–Burk plots, kinetic values such as the Michaelis–Menten constants and maximum velocity were determined. Next, two inhibition constants for inhibitor binding with free enzyme or enzyme–substrate complex (Ki and Kis) were obtained by plotting the secondary plot of the slopes of the determined straight lines or vertical intercept (1/Vmax) versus inhibitor concentration.
# [2] = tested on: normal mouse fibroblast (BALB/3T3) cells; test: Antiproliferative assay (MTT or SRB), normal fibroblasts BALB/3T3; type: cell-based; conditions: Balb/3T3 normal mouse fibroblasts; read-out: IC50 ± SD, antiproliferative activity
# Method: Anticancer drugs are toxic to cancer cells, but also show some toxicity to healthy cells. […] The selectivity indexes for thiazoles 3a–3j against MV4-11 and A-549 cells were in general much higher than for MDA-MB-231 and UMUC-3 cells.
# Cell preparation, an in vitro antiproliferative assay, and MTT and SRB cytotoxic tests were performed according to the literature.
# A549 cells = test: Cell cycle analysis, PI staining flow cytometry; type: cell-based, human; conditions: 48 h, control 6.20 ± 0.23%
# Method: The rate of cell apoptosis and necrosis was detected using Annexin V-FITC/PI double staining. […] Compound 3e turned out to be a stronger inducer of apoptosis than 3c. […] In turn, compound 3c induced apoptosis only at the concentrations of 10 and 20 µM, and the percentage of cells undergoing apoptosis increased from 6.05 ± 0.17% in the control to 10.14 ± 0.76% and 14.67 ± 0.68%, respectively (Figure 4B). Moreover, compound 3e at a concentration of 5 µM induced apoptosis to a similar level as cisplatin (CDDP) used at a concentration of 4 µM. To identify the mechanism of the 3c- and 3e-induced apoptosis in the A549 cells, the activation of effector caspase-3 was evaluated by flow cytometry. […] To further explore the antiproliferative activity of compounds 3c and 3e, the influence of both compounds on the distribution of cell cycle phases in the A549 cells was analyzed. […] The G2 checkpoint prevents cells from entering mitosis when DNA is damaged, providing an opportunity for repair and stopping the proliferation of damaged cells. […] Apoptosis is a crucial process involved in the regulation of tumor formation and in the treatment response; therefore, cancer therapy has been linked to activation of the apoptosis signal transduction pathway. Caspase-3, an executioner caspase, plays an important role in apoptosis and becomes a primary target for cancer treatment.
# The fluorescence-activated cell sorting (FACS) technique was employed to analyze the 3c- and 3e-induced cell death, the activation of executive caspase-3, and the cell cycle in the A549 cells. The quantitative analysis of apoptosis and necrosis was performed using an Annexin V-fluorescein isothiocyanate (FITC)/ propidium iodide (PI) apoptosis kit (BD Biosciences, BD Pharmingen™, San Jose, CA, USA) as previously described. To determine the active form of caspase-3, the A549 cells were plated into 6-well plates at a density of 6 × 10^5 cells/well. The next day, the growth medium was replaced with a fresh one supplemented with compound 3c or 3e (10, 20, and 40 µM) or the DMSO vehicle (0.1%; control cells). After 48-h incubation, the samples were harvested and the level of active caspase-3 was determined using the phycoerythrin (PE) Active Caspase-3 Apoptosis Kit (BD Pharmingen™) according to the manufacturer’s instructions. The stained cells were analyzed using FACS Calibur, and data were analyzed using Cell Quest Pro Version 6.0 (BD Biosciences, San Jose, CA, USA) for the Macintosh operating system. The results were calculated as a percent of cells with active caspase-3 among all the analyzed cells. The cell cycle analysis was performed by determination of the DNA contents on the basis of PI staining as previously described.
# Figure 6 Effect of compounds 3c and 3e on cell cycle distribution in A549 cells. After the treatment with the indicated concentrations of compounds 3c and 3e for 48 h, the cells were stained with propidium iodide and analyzed by flow cytometry. (A) Representative DNA histograms of A549 cells treated with compounds 3c and 3e. (B,C) Statistical analysis of the percentages of A549 cells in the sub-G1, G0/G1, S, and G2/M phases after treatment with compounds 3c and 3e, respectively. Data are expressed as means ± SD from three independent experiments. ** p < 0.01 and *** p < 0.001 in comparison to the control; one-way ANOVA followed by Tukey’s post hoc test.
Compound,Inhibition Type [1],Kis (enzyme-substrate-inhibitor dissociation constant) [1],Ki [1],IC50 [2],G2/M fraction of A549 cells (A549 cells; 5 µM),G2/M fraction of A549 cells (A549 cells; 10 µM),G2/M fraction of A549 cells (A549 cells; 20 µM)
"CCC1(CC)C(=O)N(c2ccc(-c3csc(Nc4cc(OC)c(OC)c(OC)c4)n3)cc2)C1=O [3c, 3,3-Diethyl-1-(4-(2-(3,4,5-trimethoxyphenylamino)thiazol-4-yl)phenyl)azetidine-2,4-dione]",mixed type I inhibition,99.50 nM,0.0661 µM,7.42 ± 1.04 µM,9.69 ± 0.77%,15.68 ± 5.31%,29.04 ± 1.09%
"CCC1(CC)C(=O)N(c2ccc(-c3csc(Nc4ccc(S(N)(=O)=O)cc4)n3)cc2)C1=O [3e, 4-(4-(4-(3,3-Diethyl-2,4-dioxoazetidin-1-yl)phenyl)thiazol-2-ylamino)benzenesulfo-namide]",mixed type I inhibition,240.00 nM,0.0358 µM,6.57 ± 0.21 µM,9.08 ± 0.69%,10.83 ± 1.06%,35.78 ± 0.46%
